Data taken from patent US11419841B2, “Uses of lipophenolic compounds” (Universite De Montpellier, priority 2017, dated 2022).
“Also recorded” adds a separate entry of the source.

Assays:
MMP-9 [1] = biological target: T1, MMP-9 (Homo sapiens, UniProt P14780); test: MMP-9 activity in TNF-alpha activated THP-1 cell line (gelatin zymography); assay type: cell-based; details: for inhibition of MMP-9 activity: 30 μM, 24 h, THP-1 activated with 10 ng/mL TNF-α, zymogram (FIG. 3); for dose-response effect on the inhibitory activity of MMP9: zymogram and curve (FIG. 4)
T1 construct: endogenous in cells
T1 sequence (P14780 94-707): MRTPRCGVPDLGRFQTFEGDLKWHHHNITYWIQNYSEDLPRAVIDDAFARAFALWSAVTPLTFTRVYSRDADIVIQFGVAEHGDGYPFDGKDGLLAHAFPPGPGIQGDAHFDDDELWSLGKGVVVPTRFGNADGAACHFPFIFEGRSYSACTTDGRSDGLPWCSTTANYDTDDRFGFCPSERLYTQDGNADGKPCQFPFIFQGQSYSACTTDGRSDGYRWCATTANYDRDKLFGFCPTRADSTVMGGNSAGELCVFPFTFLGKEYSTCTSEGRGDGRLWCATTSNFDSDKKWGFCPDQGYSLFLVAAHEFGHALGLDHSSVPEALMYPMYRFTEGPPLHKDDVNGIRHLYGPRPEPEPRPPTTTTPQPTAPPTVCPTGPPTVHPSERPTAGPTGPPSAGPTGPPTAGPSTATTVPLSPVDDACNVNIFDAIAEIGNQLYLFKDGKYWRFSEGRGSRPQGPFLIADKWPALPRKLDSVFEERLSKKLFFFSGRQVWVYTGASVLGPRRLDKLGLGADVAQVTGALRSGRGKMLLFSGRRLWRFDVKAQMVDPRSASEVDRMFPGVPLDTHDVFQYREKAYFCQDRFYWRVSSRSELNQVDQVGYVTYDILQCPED
Description: THP-1 cells (human monocytic THP-1 cell line) were cultured in 10% heated inactivated FBS RPMI 1640 medium supplemented with penicillin G 100 units/mL and streptomycin 100 μg/mL purchased from Fisher Scientific™ (Illkirch-Graffenstaden, France).
THP-1 cells were seeded (3×10^5 cell/well) in 24-well plate with 10 ng/mL TNF-α with or without 30 μM of resveratrol derivatives dissolved in DMSO. After 24 hours incubation at 37° C., supernatant was collected and tested on zymography.
Low-serum (1%) RPMI-1640 medium was used for the assessment of MMP-9 activity on TNF-alpha activated THP-1 cell line 3×10^6 cell/mL. Firstly, resveratrol and its derived lipophenolic compounds were dissolve in DMSO, and incubated at a final concentration of 30 μM with 10 ng/mL TNF-alpha treated THP-1 in CO2 incubator chamber for 24 hours at 37° C. After incubation, cell suspension was centrifuged at 1200 r.p.m for five minutes, supernatant was recovered and stored at −80° C. for zymogram analysis.
The anti MMP-9 activity was assessed using gelatin zymography. In brief, the collected supernatants were loaded on 10% SDS-polyacrylamide gel electrophoresis (PAGE) supplemented with 1% gelatin without reducing agents. After separation, gels were washed three times with 2.5% Triton X-100 and incubated with gelatinase buffer (NaCl 200 mM, Tris Base 50 mM, CaCl2) 5 mM and ZnCl2 0.25 mM; pH 7.5), for 24 hr at 37° C. on an orbital shaker at 100 r.p.m/min. Gels were further stained for one hour with Commassie Blue-staining solution (0.025% Commassie Blue, 40% methanol and 10% acetic acid) followed by destaining with 20% methanol and 10% glacial acetic acid solution until the clear bands appearance. Gels were photographed and analyzed by GelAnalyzer 2010a™ software.

[2] = tested on: HUVEC cells and THP-1 cell line; test: Cell viability assay (MTT assay); assay type: cell-based; details: 10, 20, 40 μM, 72 h, MTT (FIG. 6)
Description: The MTT assay is a test used to evaluate the cytotoxicity of compounds.
The cytotoxicity assay was carried out as described by Mosmann (Mosmann 1983). HUVEC cells and THP-1 cell line (1×10^4 cell/well) were seeded in 96-well plate and incubated CO2 incubator chamber at 37° C. for 24 h. Cells were treated with serial dilutions of lipophenolic derivative of resveratrol at a final concentration of 10, 20, 40 and 80 μM, and plate was incubated for 72 hours. Supernatant was discarded and MTT-serum-free medium was added to each plate and incubated for three additional hours. The formed formazan blue crystals were further dissolved by addition of 100 μL of 10% SDS in 0.1 N HCl to each plate for 2 hours. The optical density was measured at 570 nm (reference filter 690 nm) using a TECAN™ plate reader. Lethal Concentration 50% (LC50) was calculated using GraphPad Prism v.5 software.

HUVEC monolayer = test: In vitro vascular permeability assay (FITC-dextran endothelial permeability assay); assay type: cell-based, human; details: 10 μM, 100 ng/mL TNF-α, 24 h (FIG. 5)
Description: Human umbilical vascular endothelial cells (HUVECs) were cultured in low serum (1%) EndoGro™ medium kit purchased from Merck Millipore™ (Paris, France). TNF-α was purchased from PeproTech™ (Neuilly-Sur-Seine, France). The permeability of HUVEC monolayer seeded on collagen coated semi-permeable inserts was examined using in vitro vascular permeability assay kit, Millipore™ (Paris, France) according to the manufacturer protocol. Endothelial cells are seeded into the inserts and cultured until complete monolayer formation occurs. After forming confluent monolayer by seeding HUVECs (4×10^5 cells/insert) for 48 hours, medium was replaced with 100 ng/mL TNF-α in medium with and without MMP-9 inhibitors at 10 μM and incubated for 24 hours in CO2 chamber at 37° C. Lipophenolic derivatives of resveratrol were dissolved in DMSO, and SB-3CT (gelatinase inhibitor) was dissolved in DMSO. At the end of the permeability treatment, 150 μl FITC-dextran in media solution were incubated for 20 minutes at room temperature protected from light. FITC-dextran permeates the treated cell monolayer into the plate well. Permeation was stopped by removing the inserts and 100 μl were withdrawn from the receiving tray and added to 96-well opaque plate for fluorescence measurement. The resulting fluorescence in the plate well is measured and used as an indicator of the extent of monolayer permeability. […]

[3] = tested on: TNF-α release by LPS-activated BV-2 microglia; test: TNF-α release by LPS-activated BV-2 microglia (AlphaLISA); assay type: cell-based, murine; details: 30 μM, 24 h after LPS, BV2 cells, mean±SEM (FIG. 7)
Description: BV-2 cells that are derived from raf/myc-immortalised murine neonatal microglia are the most frequently used substitute for primary microglia (Blasi et al., 1990).
BV-2 cells were maintained in 75 cm2 culture flasks in Dulbecco's Modified Eagle's Medium (DMEM, Sigma) supplemented with 10% fetal bovine serum (FBS, Sigma) and 1% Penicillin-Streptomycin solution (Sigma), and cultured at 37° C. in a humidified atmosphere of 5% CO2.
BV-2 cells were plated on 24-well plates at a density of 10^5 cells per well. On the following day cells were subjected to different treatments. To study the effect of Resv-LA on TNF-alpha production by LPS activated BV-2 cells, the cells were incubated in medium containing 1 mg/ml LPS (Sigma-Aldrich) for 24 h, with or without Resv-LA (REV-LA) 30 μM.
Supernatants from untreated and treated cells were centrifuged at 5000 rpm for 5 minutes and assayed for their TNF-α contents using the TNF-α (mouse) AlphaLISA Detection Kit of Perkin-Elmer. TNF-α released was normalized by cell number and expressed as percentage of the maximal released obtained in the LPS-stimulated condition.
Data are expressed as mean±SEM. Statistical analysis of differences between groups was performed by using unpaired t-test/Mann-Whitney. […]

MMP-9 [4] = details: Cheng et al. 2009, Gao et al. 2014; cited from earlier work
[5] = in vivo; Walle 2011, Chang et al. 2016; cited from earlier work

Row | SMILES | inhibition of MMP-9 activity (MMP-9 [1]) | cytotoxic effect on viability [2] | dose-response effect on the inhibitory activity of MMP9 (MMP-9 [1]) | further results
1 | CC/C=C\C/C=C\C/C=C\C/C=C\C/C=C\C/C=C\CCC(=O)Oc1ccc(/C=C/c2cc(O)cc(O)c2)cc1 [4′-Resv-DHA, (4,7,10,13,16,19 Z)-4-((E)-3,5-dihydroxyphenylstyryl)phenyl docosa-4,7,10,13,16,19-hexaenoate] | reduced MMP-9 activity |  |  | 
2 | CC/C=C\C/C=C\C/C=C\C/C=C\C/C=C\C/C=C\CCC(=O)Oc1cc(O)cc(/C=C/c2ccc(O)cc2)c1 [Compound 3-Resv-DHA, (4,7,10,13,16,19Z)-3-hydroxy-5-((E)-4-hydroxystyryl)phenyl docosa-4,7,10,13,16,19-hexaenoate] | did not show any inhibitory activity; also recorded: not active |  |  | 
3 | CCCCCCCCCCCCCCCCCCCCCC(=O)Oc1ccc(/C=C/c2cc(O)cc(O)c2)cc1 [Resv-C22, (E)-4-(3,5-dihydroxystyryl)phenyl docosanoate] | demonstrated inhibition of MMP9-activity | does not have cytotoxic effect | dose-response effect | 
4 | CCCCC/C=C\C/C=C\CCCCCCCC(=O)Oc1ccc(/C=C/c2cc(O)cc(O)c2)cc1 [Resv-LA, (9,12Z)-4-((E)-3,5-dihydroxystyryl)phenyl octadeca-9,12-dienoate] | best activity; also recorded: demonstrated inhibition of MMP9-activity | does not have cytotoxic effect | dose-response effect | inhibition of TNF-alpha-enhanced permeability of the HUVEC monolayer (HUVEC monolayer): demonstrated inhibition; TNF-α released, as percentage of the maximal released obtained in the LPS-stimulated condition [3]: 66.1±4.2 percentage
5 | Oc1ccc(C=Cc2cc(O)cc(O)c2)cc1 [Resveratrol] |  |  |  | inhibition of the activity of MMP-9 (reported) (MMP-9 [4]): inhibit the activity of MMP-9; bioavailability [5]: poor bioavailability
